The target of test [1] is T1, Adrenergic receptor alpha-1 (Rattus norvegicus, UniProt P15823+P23944+P43140).
T1 sequence (P15823 whole entry): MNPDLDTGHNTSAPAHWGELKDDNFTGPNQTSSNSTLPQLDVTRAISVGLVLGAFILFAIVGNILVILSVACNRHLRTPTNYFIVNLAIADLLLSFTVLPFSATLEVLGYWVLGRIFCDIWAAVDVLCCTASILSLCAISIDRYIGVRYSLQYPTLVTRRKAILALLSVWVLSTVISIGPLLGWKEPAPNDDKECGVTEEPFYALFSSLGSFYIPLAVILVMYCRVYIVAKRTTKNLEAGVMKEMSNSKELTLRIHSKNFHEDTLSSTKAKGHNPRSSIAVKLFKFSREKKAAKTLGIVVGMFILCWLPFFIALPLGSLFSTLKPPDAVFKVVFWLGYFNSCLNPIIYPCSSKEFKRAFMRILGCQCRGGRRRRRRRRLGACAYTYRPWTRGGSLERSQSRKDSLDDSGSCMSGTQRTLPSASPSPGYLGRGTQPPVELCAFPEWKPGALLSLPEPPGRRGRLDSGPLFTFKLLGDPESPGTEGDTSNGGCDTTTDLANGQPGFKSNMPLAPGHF
T1 sequence (P23944 whole entry): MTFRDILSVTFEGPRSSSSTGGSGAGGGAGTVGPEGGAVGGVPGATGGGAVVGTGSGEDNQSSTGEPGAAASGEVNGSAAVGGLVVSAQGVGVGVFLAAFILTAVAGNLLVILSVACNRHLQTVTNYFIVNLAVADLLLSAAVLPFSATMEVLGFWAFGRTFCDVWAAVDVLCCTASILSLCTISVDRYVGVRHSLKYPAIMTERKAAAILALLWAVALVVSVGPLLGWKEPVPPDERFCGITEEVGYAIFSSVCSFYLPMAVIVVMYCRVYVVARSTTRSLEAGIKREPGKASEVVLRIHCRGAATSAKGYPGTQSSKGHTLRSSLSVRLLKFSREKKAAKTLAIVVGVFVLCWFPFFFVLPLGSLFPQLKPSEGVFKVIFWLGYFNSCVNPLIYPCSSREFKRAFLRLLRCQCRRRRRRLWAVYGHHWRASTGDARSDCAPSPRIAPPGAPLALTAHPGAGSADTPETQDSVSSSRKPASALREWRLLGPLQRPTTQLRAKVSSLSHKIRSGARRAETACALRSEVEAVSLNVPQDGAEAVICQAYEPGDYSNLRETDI
T1 sequence (P43140 whole entry): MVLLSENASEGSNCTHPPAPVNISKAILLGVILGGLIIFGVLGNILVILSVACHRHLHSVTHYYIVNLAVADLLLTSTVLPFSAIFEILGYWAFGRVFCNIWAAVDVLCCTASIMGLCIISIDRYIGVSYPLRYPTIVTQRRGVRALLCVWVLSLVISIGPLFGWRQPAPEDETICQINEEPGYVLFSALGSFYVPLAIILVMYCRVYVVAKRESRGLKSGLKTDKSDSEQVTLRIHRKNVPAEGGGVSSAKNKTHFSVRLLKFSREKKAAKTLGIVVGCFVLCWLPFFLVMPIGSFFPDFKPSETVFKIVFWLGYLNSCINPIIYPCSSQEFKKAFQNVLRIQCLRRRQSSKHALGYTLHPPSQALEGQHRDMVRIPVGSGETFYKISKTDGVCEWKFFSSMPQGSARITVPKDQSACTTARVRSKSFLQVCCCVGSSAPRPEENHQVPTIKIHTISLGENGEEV
Nature of the test: Binding affinity towards Alpha-1 adrenergic receptor was determined by competitive displacement assays using rat brain homogenate with [3H]prazosin as the competitive ligand. The class given is tissue-based.

The next test has as its target T2, D(4) dopamine receptor (Homo sapiens, UniProt P21917).
T2 sequence (P21917 whole entry): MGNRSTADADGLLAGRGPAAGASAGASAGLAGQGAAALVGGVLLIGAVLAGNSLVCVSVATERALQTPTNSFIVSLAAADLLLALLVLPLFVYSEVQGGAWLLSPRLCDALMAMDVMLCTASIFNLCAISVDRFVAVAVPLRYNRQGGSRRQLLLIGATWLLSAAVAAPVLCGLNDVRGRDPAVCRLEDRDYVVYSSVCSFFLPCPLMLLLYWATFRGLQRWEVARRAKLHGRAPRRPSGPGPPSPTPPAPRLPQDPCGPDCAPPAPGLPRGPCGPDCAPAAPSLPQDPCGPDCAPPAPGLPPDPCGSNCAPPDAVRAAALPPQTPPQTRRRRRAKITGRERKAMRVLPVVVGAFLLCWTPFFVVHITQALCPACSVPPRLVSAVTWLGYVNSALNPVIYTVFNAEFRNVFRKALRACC

Test [2] has as its system Rattus norvegicus. Nature of the test: Minimum effective dose required for significant dose dependent reduction of amphetamine-induced locomotor activity in male Sprague-Dawley rats on subcutaneous administration (30 min prior to receiving amphetamine 0.5 mg/kg). The format is functional. The settings on record: sc, read-out: MED.
The species entered for test [3] is Rattus norvegicus. Nature of the test: Minimum effective dose required in the catalepsy experiment in rats; showed no significant effect at this dose. The settings on record: read-out: MED. The class given is functional.
The species entered for test [4] is Rattus norvegicus. As to the kind of experiment: Minimum effective dose required in the catalepsy experiment in rats. The class given is functional. The settings on record: read-out: MED.

Some results are limits rather than exact numbers.

Description for D(4) dopamine receptor: Binding affinity towards Dopamine type 4 receptor was determined by competitive displacement assays using [3H]-YM 09151 as the competitive ligand

For the compound `C[C@@H]1Cc2ccccc2N1C(=O)CN1CCN(Cc2cc(F)c(Cl)cc2F)CC1`, the Ki (as a rule, the equilibrium dissociation constant of an inhibitor or competing ligand from its target) in test [1] was above 10000 nM; on D(4) dopamine receptor, 6 nM.

Turning to `COc1ccc(Cl)cc1CN1CCN(CC(=O)N2c3ccccc3C[C@H]2C)CC1`, the values for the inhibition constant (Ki) (in test [1]; at D(4) dopamine receptor) were 980 nM and 5 nM, respectively.

For `C[C@@H]1Cc2ccccc2N1C(=O)CN1CCN(Cc2cccc(F)c2)CC1`, the Ki at D(4) dopamine receptor was determined as 6 nM.

In the case of `COC(=O)[C@@H]1Cc2ccccc2N1C(=O)CN1CCN(Cc2ccc(C)cc2)CC1`, the Ki in test [1] is 100 nM; on D(4) dopamine receptor, 8 nM.

For `O=C(O)[C@@H]1Cc2ccccc2N1C(=O)CN1CCN(Cc2ccc(Cl)cc2)CC1`, the figures for the Ki (in test [1]; at D(4) dopamine receptor) were 453 nM and 1760 nM, respectively.

With `COc1cc(Cl)ccc1CN1CCN(CC(=O)N2c3ccccc3C[C@H]2C)CC1`, the inhibition constant (Ki) in test [1] was found to be 1060 nM; on D(4) dopamine receptor, 3 nM. Also, in the test on Rattus norvegicus [2], the minimal effective dose was above 4 mg/kg.

For the compound `COC(=O)[C@@H]1Cc2ccccc2N1C(=O)CN1CCN(Cc2ccc(Cl)cc2)CC1`, the inhibition constant Ki is above 1000 nM in test [1] and 5 nM on D(4) dopamine receptor.

In the case of `O=C(NCc1ccccc1)[C@@H]1Cc2ccccc2N1C(=O)CN1CCN(Cc2ccc(Cl)cc2)CC1`, at D(4) dopamine receptor, the Ki is above 1000 nM.

With `CC(C)c1ccc(Cl)cc1CN1CCN(CC(=O)N2c3ccccc3C[C@H]2C)CC1`, the affinity at D(4) dopamine receptor, expressed as Ki, was 10 nM.

Take `C[C@@H]1Cc2ccccc2N1C(=O)CN1CCN(Cc2ccc(Cl)cc2)CC1`: the minimal effective dose with Rattus norvegicus [2] was above 8 mg/kg.

For the compound `C[C@@H]1Cc2ccccc2N1C(=O)CN1CCN(Cc2ccccc2F)CC1`, the figures for the inhibitory constant (Ki) (in test [1]; on D(4) dopamine receptor) were above 10000 nM and 27 nM, respectively.

In the case of `Cc1ccc(CN2CCN(CC(=O)N3c4ccccc4C[C@H]3C)CC2)cc1F`, the inhibition constant Ki in test [1] turned out to be 807 nM; on D(4) dopamine receptor, 2 nM.

For `COc1ccc(OC)c(CN2CCN(CC(=O)N3c4ccccc4C[C@H]3C)CC2)c1`, the Ki in test [1] was found to be 1660 nM; at D(4) dopamine receptor, 29 nM.

As for `C[C@@H]1Cc2ccccc2N1C(=O)CN1CCN(Cc2ccc(F)c(F)c2Cl)CC1`, the Ki was above 1000 nM in test [1] and 12 nM on D(4) dopamine receptor.

As for `Cc1ccc(CN2CCN(CC(=O)N3c4ccccc4C[C@H]3C)CC2)cc1`, in the test on Rattus norvegicus [2], the minimal effective dose was above 4 mg/kg.

As for `CC[C@@H]1Cc2ccccc2N1C(=O)CN1CCN(Cc2ccc(C)cc2)CC1`, the Ki was found to be 1330 nM in test [1] and 3 nM on D(4) dopamine receptor.

`C[C@@H]1Cc2ccccc2N1C(=O)CN1CCN(Cc2ccc3c(c2)OCO3)CC1`: the values for the inhibitory constant (Ki) (in test [1]; on D(4) dopamine receptor) were 1130 nM and 3 nM, respectively.

Consider `CCOc1ccc(Cl)cc1CN1CCN(CC(=O)N2c3ccccc3C[C@H]2C)CC1`, for which the inhibition constant (Ki) is 1090 nM in test [1] and 11 nM on D(4) dopamine receptor.

Take `C=C[C@@H]1Cc2ccccc2N1C(=O)CN1CCN(Cc2ccc(Cl)cc2)CC1`: in test [1], the affinity corresponds to a Ki of 2180 nM.

For the compound `CN1CCN(C2=Nc3cc(Cl)ccc3Nc3ccccc32)CC1` [CLOZAPINE], the minimal effective dose with Rattus norvegicus [2] is 1 mg/kg; in the test filed under Rattus norvegicus [3] it was above 40 mg/kg.

On to `O=C(CCCN1CCC(O)(c2ccc(Cl)cc2)CC1)c1ccc(F)cc1` [HALOPERIDOL], for which the minimal effective dose stood at 0.06 mg/kg with Rattus norvegicus [2] and 0.5 mg/kg in the test filed under Rattus norvegicus [4].

The values are drawn from ChEMBL document CHEMBL1134937, “Indoline and piperazine containing derivatives as a novel class of mixed D(2)/D(4) receptor antagonists. Part 2: asymmetric synthesis and biological evaluation” (Bioorg Med Chem Lett, 2002).
